Test results reported in patent US20240368120A1 (Terns Pharmaceuticals, Inc., priority 2023, published 2024).
pEC50: −log10 of the molar value.

Target: T1, human GLP-1R receptor (Homo sapiens, UniProt P43220)
T1 construct: expressed in transfected cells
Test: GLP-1R low expression cell assay (cAMP TR-FRET, CHO-K1_hGLP-1Rlow_clone10 cells)
Format: cell-based
Conditions: for pEC50: cAMP TR-FRET, 30 min at 25° C.
How it was run: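 CHO-K1 cells stably expressing low surface human GLP-1R (clone10), 1,000 cells/well, exposed to 10-point 3-fold compound dilutions for 30 min at 25 °C. cAMP measured by TR-FRET (Eu-cAMP tracer/ULight-anti-cAMP, 15 min). EC50 from Hill fit of duplicate percent activation relative to a parallel GLP-1 control agonist.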

[1] = maximum activation relative to control GLP-1 peptide agonist

T1 sequence (P43220 24-463): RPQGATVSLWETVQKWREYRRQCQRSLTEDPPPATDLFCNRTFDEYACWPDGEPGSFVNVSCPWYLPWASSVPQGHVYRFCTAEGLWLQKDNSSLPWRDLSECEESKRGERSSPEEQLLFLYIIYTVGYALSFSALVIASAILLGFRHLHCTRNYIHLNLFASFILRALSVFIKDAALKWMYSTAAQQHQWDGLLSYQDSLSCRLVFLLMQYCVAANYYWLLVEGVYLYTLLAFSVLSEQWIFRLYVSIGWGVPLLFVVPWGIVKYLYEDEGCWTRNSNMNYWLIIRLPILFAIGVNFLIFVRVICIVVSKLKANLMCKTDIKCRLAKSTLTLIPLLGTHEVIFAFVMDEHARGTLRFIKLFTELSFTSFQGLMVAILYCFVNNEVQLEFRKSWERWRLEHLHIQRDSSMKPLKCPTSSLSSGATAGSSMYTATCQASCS

Row | SMILES | pEC50 | Emax [1] | GLP-1R Low Expression Cell Assay Emax (%) [1]
1 | COc1cc(C(=O)O)cc2c1nc(CN1CCN(c3cccc(OCc4ccc(Cl)cc4F)n3)CC1)n2C [Compound 383, 2-((4-(6-((4-Chloro-2-fluorobenzyl)oxy)pyridin-2-yl)piperazin-1-yl)methyl)-4-methoxy-1-methyl-1H-benzo[d]imidazole-6-carboxylic acid] | 7.00 to 8.00 | > 85% | 
2 | COc1c(F)c(C(=O)O)cc2c1nc(CN1CCC(c3cccc(OCc4ccc(Cl)cc4F)n3)CC1)n2C [Compound 337, 2-((4-(6-((4-Chloro-2-fluorobenzyl)oxy)pyridin-2-yl)piperidin-1-yl)methyl)-5-fluoro-4-methoxy-1-methyl-1H-benzo[d]imidazole-6-carboxylic acid] | 7.00 to 8.00 | > 85% | 
3 | COc1cc(C#CC(=O)O)cc2c1nc(CN1CCC(c3cccc(OCc4ccc(Cl)cc4F)n3)CC1)n2C[C@@H]1CCO1 [Compound 257, (S)-3-(2-((4-(6-((4-Chloro-2-fluorobenzyl)oxy)pyridin-2-yl)piperidin-1-yl)methyl)-4-methoxy-1-(oxetan-2-ylmethyl)-1H-benzo[d]imidazol-6-yl) propiolic acid] | 7.00 to 8.00 | 50 to 85% | 
4 | Cn1c(CN2CCC(c3cccc(OCc4ccc(C#N)cc4F)n3)CC2)nc2c(OCC(F)(F)F)cc(C(=O)O)cc21 [Compound 121, 2-((4-(6-((4-Cyano-2-fluorobenzyl)oxy)pyridin-2-yl)piperidin-1-yl)methyl)-1-methyl-4-(2,2,2-trifluoroethoxy)-1H-benzo[d]imidazole-6-carboxylic acid] | > 8.00 | > 85% | 
5 | O=C(O)c1ccc2c(nc(CN3CCC(c4cccc(OCc5ccc(Cl)cc5F)n4)CC3)n2C[C@@H]2CCO2)c1O [Compound 245, (S)-2-((4-(6-((4-Chloro-2-fluorobenzyl)oxy)pyridin-2-yl)piperidin-1-yl)methyl)-4-hydroxy-1-(oxetan-2-ylmethyl)-1H-benzo[d]imidazole-5-carboxylic acid] | > 8.00 | > 85% | 
6 | CO[C@H]1C[C@H](Oc2cc(C(=O)O)cc3c2nc(CN2CCC(c4cccc(OCc5ccc(C#N)cc5F)n4)CC2)n3C)C1 [Compound 317, 2-((4-(6-((4-Cyano-2-fluorobenzyl)oxy)pyridin-2-yl)piperidin-1-yl)methyl)-4-((1r,3r)-3-methoxycyclobutoxy)-1-methyl-1H-benzo[d]imidazole-6-carboxylic acid] | 6.00 to 7.00 | > 85% | 
7 | COc1cc(C(=O)O)cc2c1nc(CN1CC[C@@H](c3cccc(OCc4ccc(C#N)cc4F)n3)[C@@H]3C[C@@H]31)n2C[C@@H]1CCO1 [Compound 387, 2-(((1S,5R,6S)-5-(6-((4-cyano-2-fluorobenzyl)oxy)pyridin-2-yl)-2-azabicyclo[4.1.0]heptan-2-yl)methyl)-4-methoxy-1-(((S)-oxetan-2-yl)methyl)-1H-benzo[d]imidazole-6-carboxylic acid] | > 8.00 |  | 
8 | Cn1c(CN2CCC(c3cccc(OCc4ccc(Cl)cc4F)n3)CC2)nc2c(OC(F)CF)cc(C(=O)O)cc21 (single isomer, unassigned) [Compound 330] | 7.00 to 8.00 |  | ++++ (Emax is >85%)
9 | Cn1c(CN2CCC(c3cccc(OCc4ccc(Cl)cc4F)c3)CC2)nc2c(OC(F)F)cc(C(=O)O)cc21 [Compound 148, 2-((4-(3-((4-Chloro-2-fluorobenzyl)oxy)phenyl)piperidin-1-yl)methyl)-4-(difluoromethoxy)-1-methyl-1H-benzo[d]imidazole-6-carboxylic acid] | 6.00 to 7.00 | > 85% | 
10 | Cn1c(CN2CCC(c3cccnc3OCc3ccc(Cl)cc3F)CC2)nc2c(OC(F)F)cc(C(=O)O)cc21 [Compound 364, 2-((4-(2-((4-Chloro-2-fluorobenzyl)oxy)pyridin-3-yl)piperidin-1-yl)methyl)-4-(difluoromethoxy)-1-methyl-1H-benzo[d]imidazole-6-carboxylic acid] | 7.00 to 8.00 | > 85% | 
